What was measured:
Test in all cases: whole plant or invertebrate
Assay type in all cases: in vivo
[1] = test system: Puccinia recondita (f. sp. tritici Races PKB and PLD); details: 240 h, read-out: percent disease control, WLR
[2] = test system: Erysiphe graminis (f. sp. tritici); details: Blumeria graminis, 192 h; read-out: percent disease control, WPM
[3] = test system: Pseudoperonospora cubensis; details: in Cucumis sativus, 168 h, read-out: percent disease control, CDM
Piricularia oryzae = details: Pyricularia oryzae, 192 h, read-out: percent disease control, RB
Phytophthora infestans = details: in Solanum lycopersicum, 96 h, read-out: percent disease control, TLB
[4] = test system: Puccinia graminis (f. sp. tritici Race 15B-2); details: 240 h, read-out: percent disease control, WSR

| Compound | pest or weed control at 300 g/ha [2] [%] | pest or weed control at 300 g/ha [3] [%] | pest or weed control at 300 g/ha [4] [%] | pest or weed control at 300 g/ha (Piricularia oryzae) [%] | pest or weed control at 300 g/ha (Phytophthora infestans) [%] | pest or weed control at 150 g/ha [1] [%] | pest or weed control at 150 g/ha [2] [%] | pest or weed control at 150 g/ha (Phytophthora infestans) [%] | further results |
| --- | --- | --- | --- | --- | --- | --- | --- | --- | --- |
| N#CC(CC1CCCO1)(Cn1cncn1)c1ccccc1 (centres unmarked) [Example 1, 1-[2-Cyano-2-phenyl-3-(tetrahydrofuran-2-yl)propyl]-1,2,4-triazole] | – | – | – | – | – | – | – | – | pest or weed control at 225 g/ha [1]: 100%; pest or weed control at 225 g/ha [2]: 100%; pest or weed control at 225 g/ha [3]: 10%; pest or weed control at 225 g/ha (Piricularia oryzae): 100%; pest or weed control at 225 g/ha (Phytophthora infestans): 5% |
| N#CC(CCN1CCOCC1)(Cn1cncn1)c1ccc(Cl)cc1 (centres unmarked) [Example 2, 1-[2-(4-Chlorophenyl)-2-cyano-4-(4-morpholinyl)butyl]-1,2,4-triazole] | 50 | 0 | 0 | 0 | 0 | – | – | – | – |
| CC1CN(CCCC(C#N)(Cn2cncn2)c2ccc(Cl)cc2)CC(C)O1 (centres unmarked) [Example 3, 1-[2-(4-Chlorophenyl)-2-cyano-5-(2,6-dimethyl-4-morpholinyl)pentyl]-1,2,4-triazole] | 0 | 0 | 50 | 0 | 0 | – | – | – | – |
| CC1CN(CCC(C#N)(Cn2cncn2)c2ccc(Cl)cc2)CC(C)O1 (centres unmarked) [Example 4, 1-[2-(4-Chlorophenyl)-2-cyano-4-(2,6-dimethyl-4-morpholinyl)butyl]-1,2,4-triazole] | 0 | 0 | 100 | 0 | 0 | – | – | – | – |
| CC1CN(CCCCC(C#N)(Cn2cncn2)c2ccc(Cl)cc2)CC(C)O1 (centres unmarked) [Example 5, 1-[2-(4-Chlorophenyl)-2-cyano-6-(2,6-dimethyl-4-morpholinyl)hexyl]-1,2,4-triazole] | 0 | 0 | 80 | 0 | 0 | – | – | – | – |
| CC1CN(CCCCCCCCCCCC(C#N)(Cn2cncn2)c2ccc(Cl)cc2)CC(C)O1 (centres unmarked) [Example 6, 1-[2-(4-Chlorophenyl)-2-cyano-13-(2,6-dimethyl-4-morpholinyl)tridecyl]-1,2,4-triazole] | 0 | 0 | 80 | 0 | 0 | – | – | – | – |
| N#CC(Cc1cccnc1)(Cn1cncn1)c1ccc(Cl)cc1 (centres unmarked) [Example 7, 1-[2-(4-Chlorophenyl)-2-cyano-3-(3-pyridyl)propyl]-1,2,4-triazole] | – | – | – | – | – | 0 | 85 | 0 | pest or weed control at 150 g/ha (Piricularia oryzae): 0% |
| N#CC(CCc1cccs1)(Cn1cncn1)c1ccc(Cl)cc1 (centres unmarked) [Example 8, 1-[2-(4-Chlorophenyl)-2-cyano-4-(2-thienyl)butyl]-1,2,4-triazole] | – | – | – | – | – | 95 | 95 | 80 | pest or weed control at 150 g/ha [3]: 100%; pest or weed control at 150 g/ha [4]: 95%; pest or weed control at 150 g/ha (Piricularia oryzae): 0% |
| COc1ccccc1C(C#N)(Cc1ccccn1)Cn1cncn1 (centres unmarked) [Example 9, 1-[2-Cyano-2-(2-methoxyphenyl)-3-(2-pyridyl)propyl]-1,2,4-triazole] | – | – | – | – | – | 0 | 0 | 100 | pest or weed control at 150 g/ha (Piricularia oryzae): 0% |
| N#CC(CCCN1CCCCC1)(Cn1cncn1)c1ccc(Cl)cc1Cl (centres unmarked) [Example 10, 1-[2-Cyano-2-(2,4-dichlorophenyl)-5-(1-piperidinyl)pentyl]-1,2,4-triazole] | 75 | – | – | 50 | – | – | – | – | pest or weed control at 300 g/ha [1]: 25% |
| CN1CCCC(CC(C#N)(Cn2cncn2)c2ccc(Cl)cc2Cl)C1 (centres unmarked) [Example 11, 1-[2-Cyano-2-(2,4-dichlorophenyl)-3-(1-methylpiperidin-3-yl)propyl]-1,2,4-triazole] | 95 | 50 | – | 0 | 0 | – | – | – | pest or weed control at 300 g/ha [1]: 25% |
| N#CC(Cc1ccco1)(Cn1cncn1)c1ccc(Cl)cc1 (centres unmarked) [Example 12, 1-[2-(4-Chlorophenyl)-2-cyano-3-(2-furyl)propyl]-1,2,4-triazole] | – | – | – | – | – | 0 | 100 | 80 | pest or weed control at 150 g/ha [4]: 50% |
| N#CC(Cc1cccs1)(Cn1cncn1)c1ccc(Cl)cc1 (centres unmarked) [Example 13, 1-[2-(4-Chlorophenyl)-2-cyano-3-(2-thienyl)propyl]-1,2,4-triazole] | – | 0 | – | 0 | – | 0 | 100 | 0 | pest or weed control at 150 g/ha [4]: 100% |
| COc1ccccc1C(C#N)(CC1CCCCO1)Cn1cncn1 (centres unmarked) [Example 14, 1-[2-Cyano-2-(2-methoxyphenyl)-3-(tetrahydropyran-2-yl)propyl]-1,2,4-triazole] | 99 | 0 | – | 0 | 0 | – | – | – | pest or weed control at 300 g/ha [1]: 0% |
| N#CC(CCc1ccccn1)(Cn1cncn1)c1ccccc1 (centres unmarked) [Example 15, 1-[2-Cyano-2-phenyl-4-(2-pyridyl)butyl]-1,2,4-triazole] | 85 | 0 | – | – | 85 | – | – | – | pest or weed control at 300 g/ha [1]: 0% |
